Here are results for three compounds from US20100273876A1, “ANTIBACTERIAL FORMULATION COMPRISING A DIALKYL SULPHOSUCCINATE AND A CARBANILIDE ANTIBACTERIAL AGENT” (priority 2007, published 2010).

Assay [1] concerns Strep. mutans ATCC 25175. Put plainly: MIC assay, liquid medium. The assay is classed as cell-based, Streptococcus mutans. The protocol: (§1) The S. mutans was cultured and maintained on Wilkins-Chalgren Anaerobe Medium (agar and broth) at pH 7.0 supplemented with 1 g/L glucose; all cultures were incubated at 37° C. for 48 h in an atmosphere containing 5% CO2.
(§2) This is a standard international method for quantitatively assessing the antimicrobial activity of a compound in a liquid medium. The method used a sterile 96-well microtitre plate, capable of holding about 200 μl of liquid per well. The wells contained liquid culture medium and ranges of decreasing concentrations of the relevant test compound in doubling dilutions (eg, 1000, 500, 250, 125 . . . μg/ml, etc. down to 0.49 μg/ml). The culture media were as described above.
(§3) The wells were inoculated with a liquid suspension of freshly grown micro-organism and incubated under the conditions described above. After incubation, the microtitre plate was examined visually (with the aid of a light box) for cloudiness in each well, which would indicate microbial growth. The MIC value was recorded as the lowest concentration of test compound required to inhibit microbial growth, ie, the lowest concentration for which the liquid in the well remained clear.
(§4) The assays included both negative (culture medium with no micro-organisms) and positive (culture medium plus diluting solvent plus micro-organism) controls.

The subject of assay [2] is P. acnes NCTC 737. Put plainly: Minimum inhibitory concentration (MIC) assay, liquid medium. The assay is classed as cell-based, Propionibacterium acnes. The protocol:
(§5) The propionibacteria were cultured and maintained on Wilkins-Chalgren Anaerobe Medium (agar and broth) at pH 6.0; all cultures were incubated anaerobically at 37° C. for 72 hours.
as §2, §3, §4

The subject of assay [3] is Por. gingivalis NCTC 11834. Put plainly: MIC assay, liquid medium. It is filed as cell-based, Porphyromonas gingivalis. The protocol: (§6) The P. gingivalis strains were cultured and maintained on Wilkins-Chalgren Anaerobe Medium (agar and broth) at pH 7.0; all cultures were incubated anaerobically at 37° C. for 5-7 days.
as §2, §3, §4

For assay [4], the system named is Por. gingivalis NCTC 11834. Put plainly: MBC assay. The assay is classed as cell-based, Porphyromonas gingivalis. The protocol: The P. gingivalis strains were cultured and maintained on Wilkins-Chalgren Anaerobe Medium (agar and broth) at pH 7.0; all cultures were incubated anaerobically at 37° C. for 5-7 days. This assay, normally carried out after an MIC assay, determines the rnininiurn concentration of a compound that is lethal to the micro-organism being tested. […] These samples were then individually sub-cultured on antibiotic-free agar medium, under the incubation conditions described above. Following incubation they were examined visually for microbial growth.

In assay [5] the test system is Por. gingivalis NCTC 11834. Put plainly: (S)DDA disc diffusion. It is filed as cell-based, Porphyromonas gingivalis. Particulars: for SDDA with TCC: 200 μg DOS salt + 200 μg TCC on one disc; for DDA: 200 μg per disc. The protocol:
as §6
(§7) A sterile paper disc was impregnated with a sample of the test compound in a suitable solvent and 30 minutes allowed for the solvents to evaporate (where possible). The disc was then placed on an agar plate onto which the test micro-organism had been inoculated. The plate was then incubated under the conditions described above, following which it was examined visually for signs of microbial growth. If the test compound had antimicrobial activity, a circular zone of no growth would be obtained around the disc. The diameter of this zone of “inhibition” was measured using a ProtoCOL™ automated zone sizer (Synbiosis, Cambridge, UK). In general, a greater diameter and/or area of the zone of inhibition indicates a greater antimicrobial activity in the relevant test compound, although other factors such as test compound mobility through the agar gel may also influence the result.
(§8) Two test a compounds A and B were placed on a single paper disc and the above described DDA procedure repeated. An increase in diameter of the zone of inhibition, compared to the greater of the zone diameters for the two compounds individually, was taken to indicate potential antimicrobial synergy. In practical terms, an increase of greater than 5 mm could be treated as significant.
(§9) For the (S)DDA experiments; 200 μg of the DOS salts and/or the TCC were loaded onto each disc for Por. gingivalis experiments. For the Strep. mutans experiments, 200 μg of the TCC and 50 μg of DOSS were used on each disc. All the experiments were conducted in triplicate.
In general terms: Agar diffusion results depend on both activity and mobility in agar.

Assay [6] has as its system P. acnes NCTC 737. Put plainly: Minimum bactericidal concentration (MBC) assay. The assay is classed as cell-based, Propionibacterium acnes. The protocol: The propionibacteria were cultured and maintained on Wilkins-Chalgren Anaerobe Medium (agar and broth) at pH 6.0; all cultures were incubated anaerobically at 37° C. for 72 hours. This assay, normally carried out after an MIC assay, determines the rnininiurn concentration of a compound that is lethal to the micro-organism being tested. […] These samples were then individually sub-cultured on antibiotic-free agar medium, under the incubation conditions described above. Following incubation they were examined visually for microbial growth.

In assay [7] the test system is P. acnes NCTC 737. Put plainly: Disc diffusion / synergy disc diffusion assay ((S)DDA). The assay is classed as cell-based, Propionibacterium acnes. Particulars: for SDDA area increase / SDDA increase: 200 μg DOS salt + 200 μg TCC; for SDDA with TCC: 200 μg DOS salt + 200 μg TCC on one disc; for SDDA increase: vs greater single-compound zone; for DDA + salt: sodium chloride 100 mM; for DDA + lipid: triolein 1% v/v. The protocol: as §5, §7, §8
Both the DDA and the SDDA test may be carried out using an agar gel supplemented with lipid and/or salt to simulate some of the major components present in human skin and to assess whether these substances might reduce the antimicrobial activity observed for the test compound. Performance under these conditions can provide a more reliable indication of activity on topical application. The supplements used in Examples 1, 11, 12 and 13 below were lipid (either Tween™ 80 at 1% v/v (Example 1) or triolein at 1% v/v (Examples 11, 12 and 13) and sodium chloride (100 mM).

Assay [8] relates to Strep. mutans ATCC 25175. Put plainly: (S)DDA disc diffusion. The assay is classed as cell-based, Streptococcus mutans. Particulars: 200 μg per disc. The protocol:
as §1, §7, §8, §9

The test system of assay [9] is Strep. mutans ATCC 25175. Put plainly: MBC assay. The assay is classed as cell-based, Streptococcus mutans. The protocol:
The S. mutans was cultured and maintained on Wilkins-Chalgren Anaerobe Medium (agar and broth) at pH 7.0 supplemented with 1 g/L glucose; all cultures were incubated at 37° C. for 48 h in an atmosphere containing 5% CO2. This assay, normally carried out after an MIC assay, determines the rnininiurn concentration of a compound that is lethal to the micro-organism being tested. […] These samples were then individually sub-cultured on antibiotic-free agar medium, under the incubation conditions described above. Following incubation they were examined visually for microbial growth.

A further assay concerns Por. gingivalis 381. Put plainly: Biofilm disruption assay on hydroxyapatite discs. The assay is classed as cell-based, Porphyromonas gingivalis. To be noted: Por. gingivalis 381 biofilm, DOSS 0.5% (w/v), CHX 0.2% (w/v). The protocol:
(§10) This assay was designed to determine quantitatively the relative potency of a test compound to disrupt (effectively kill) biofilms formed by a test organism on hydroxyapatite (HA) discs.
(§11) Biofilms were formed on sterile dense ceramic HA discs 7 mm diameter x 1.8 mm thick (Clarkson Chromatography) by placing the discs in the appropriate liquid media (as described above) inoculated with the test organism (0.5×10^8 cfu/ml). The HA discs were then incubated at 37° C. for ˜48 h in a 5% CO2 atmosphere (for Strep. mutans ATCC 25175) or ˜96 h under anaerobic conditions (for Por. gingivalis 381). Following the incubation period the supernatant was removed from the wells containing the HA discs and the discs were washed×3 with fresh media to ensure all planktonic cells were removed. The HA discs were then transferred to sterile bijoux bottles containing 1 ml of phosphate buffered saline (PBS) plus test compound(s) at the required concentration. After a set time period (usually 2 and/or 5 min), the HA disc was transferred to another sterile bijoux containing 1 ml of fresh growth media. Adherent cells were then harvested by vigorous vortexing for 2 minutes. A sample was then taken, serially diluted 10-fold in fresh growth media and inoculated onto agar plates in triplicate. Untreated HA discs, and HA discs added to PBS containing only the solvents used to dissolve the test compound(s), acted as controls.
(§12) The plates were then incubated as described above and subsequently examined visually for growth. Colonies were counted at an appropriate serial dilution (5-50 individual colonies visible) with the aid of a colony counter. These measurements were then converted to numbers of colony forming units (cfu), using the formula: cfu/ml=number of colonies×serial dilution factor×100 (as only a 10 μl sample was taken).
(§13) These cfu values were then converted into log10 values and plotted graphically against time of sample removal.
(§14) At each time point, samples were assessed in triplicate; the final cfu/ml value was an average (mean) of the three readings.
(§15) Biofilm disruption assays, as described above, were carried out using DOSS as the test compound and chlorhexidine (CHX) as a positive control. For these experiments, the DOSS was tested at 0.5% w/v against Por. gingivalis and 1% w/v against Strep. mutans. The ahlorhexidine was tested at a concentration of 0.2% w/v against both micro-organisms. The DOSS was dissolved in ethanol and the chlorhexidine in distilled water. All the experiments were conducted in triplicate.

Assay [10] concerns Strep. mutans ATCC 25175. Put plainly: Biofilm disruption assay on hydroxyapatite discs. It is filed as cell-based, Streptococcus mutans. Particulars: Strep. mutans ATCC 25175 biofilm, DOSS 1.0% (w/v), CHX 0.2% (w/v). The protocol:
as §10, §11, §12, §13, §14, §15

[11] abbreviates: 200 μg of each test compound per disc (Example 2).
[12] abbreviates: 200 μg per disc, pH 6.0, single replicates.

A value given as a limit tells only on which side of the number the result lay.

Broadly, the MIC is the lowest concentration found to suppress growth. In general, MBC refers to the smallest concentration meeting the test's criterion for killing. For the compound `CCCCC(CC)COC(=O)CC(C(=O)OCC(CC)CCCC)S(=O)(=O)[O-].[K+]` (stereo not drawn) [DOS potassium salt], the minimal inhibitory concentration (MIC) against Strep. mutans ATCC 25175 [1] stood at 15.6 µg/mL; in the assay on P. acnes NCTC 737 [2], 7.8 µg/mL; in assay [3], 3.9 µg/mL. The results for the MBC (in assay [4]; in the assay with P. acnes NCTC 737 [6]; with Strep. mutans ATCC 25175 [9]) were 7.8 µg/mL, 62.5 µg/mL and 31.25 µg/mL, respectively. For the same compound, the figures for the MIC/MBC ratio (in assay [4]; in the assay on P. acnes NCTC 737 [6]; in the assay with Strep. mutans ATCC 25175 [9]) were 0.5, 0.125 and 0.5, respectively. Besides, the SDDA area increase in assay [5] was 43.78%; in the assay with P. acnes NCTC 737 [7], 99.37%. For the same compound, the SDDA increase in assay [5] is reported as 10.18 mm; with P. acnes NCTC 737 [7], 10.7 mm. The “SDDA with TCC” value in assay [5] was 61.31 mm; in the assay with P. acnes NCTC 737 [7], 36.68 mm. The DDA in assay [5] was found to be 51.13 mm; in the assay with P. acnes NCTC 737 [7] (setting [11]), 25.91 mm; in the assay with P. acnes NCTC 737 [7] (setting [12]), 46.57 mm; in the assay with Strep. mutans ATCC 25175 [8] it was 35.28 mm. In the assay on P. acnes NCTC 737 [7] (200 μg per disc, pH 6.0), the “DDA + salt” value is given as 46.26 mm. Further, the “DDA + lipid” value with P. acnes NCTC 737 [7] (200 μg per disc, pH 6.0) worked out at 48.12 mm.
In the case of `[H]/N=C(\N/C(=N/[H])NCCCCCCNC(=N)NC(=N)Nc1ccc(Cl)cc1)Nc1ccc(Cl)cc1` [CHX, chlorhexidine], the Viable cell counts with Por. gingivalis 381 (0 min) turned out to be 7.53 log10 cfu/ml; with Por. gingivalis 381 (2 min), 6.50 log10 cfu/ml; in the assay with Por. gingivalis 381 (5 min) it was 6.76 log10 cfu/ml; in the assay with Strep. mutans ATCC 25175 [10] (0 min), 6.56 log10 cfu/ml; in the assay on Strep. mutans ATCC 25175 [10] (2 min), 6.12 log10 cfu/ml; in the assay on Strep. mutans ATCC 25175 [10] (5 min) it was 5.99 log10 cfu/ml.
`CCCCC(CC)COC(=O)CC(C(=O)OCC(CC)CCCC)S(=O)(=O)[O-].CCCCC(CC)COC(=O)CC(C(=O)OCC(CC)CCCC)S(=O)(=O)[O-].[Ca+2]` (stereo not drawn) [DOS calcium salt]: the MIC stood at 15.6 µg/mL against Strep. mutans ATCC 25175 [1], 15.6 µg/mL with P. acnes NCTC 737 [2] and 3.9 µg/mL in assay [3]. For the same compound, the MBC in assay [4] was 7.8 µg/mL; against P. acnes NCTC 737 [6], above 31.25 µg/mL; against Strep. mutans ATCC 25175 [9] it was 31.25 µg/mL. Moreover, the MIC/MBC ratio in assay [4] was 0.5; in the assay on P. acnes NCTC 737 [6] it was below 0.5; with Strep. mutans ATCC 25175 [9] it was 0.5. Besides, the SDDA area increase in assay [5] is 38.64%; with P. acnes NCTC 737 [7], 128.93%. For the same compound, the values for the SDDA increase (in assay [5]; in the assay on P. acnes NCTC 737 [7]) were 9.24 mm and 12.26 mm, respectively. For the same compound, the “SDDA with TCC” value was determined as 61.31 mm in assay [5] and 36.16 mm in the assay with P. acnes NCTC 737 [7]. For the same compound, the DDA in assay [5] was found to be 52.07 mm; in the assay with P. acnes NCTC 737 [7] (setting [11]), 23.9 mm; in the assay with P. acnes NCTC 737 [7] (setting [12]), 44.71 mm; with Strep. mutans ATCC 25175 [8], 32.13 mm. Also, the “DDA + salt” value in the assay with P. acnes NCTC 737 [7] (200 μg per disc, pH 6.0) turned out to be 43.16 mm. Moreover, the “DDA + lipid” value in the assay with P. acnes NCTC 737 [7] (200 μg per disc, pH 6.0) is recorded as 49.36 mm.
